Source: ChEMBL document CHEMBL1201862, “PubChem BioAssay data set” (2004)
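Where inhibition never reached the appropriate level, the endpoint shown equals the highest concentration tested. Otherwise, values were interpolated linearly from a five-concentration, 48-hour dose response in 96-well plates. GI50 = concentration required for 50% inhibition of growth.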 The source made the active and inactive calls. No stated cut-off is given here; in the data, active = GI50 up to about 1.1 µM and inactive = higher.

What was measured:
Test in all cases: NCI anticancer screen, dose series, 48 h
NCI-H522 = tested on: NCI-H522
HCC 2998 = tested on: HCC 2998
Hs-578T = tested on: Hs-578T
OVCAR-4 = tested on: OVCAR-4
LOX IMVI = tested on: LOX IMVI
K562 = tested on: K562
SR = tested on: SR
UACC-62 = tested on: UACC-62
HOP-62 = tested on: HOP-62
U-251 = tested on: U-251
UACC-257 = tested on: UACC-257
HCT-116 = tested on: HCT-116
RXF 393 = tested on: RXF 393
786-0 = tested on: 786-0
IGROV-1 = tested on: IGROV-1
OVCAR-8 = tested on: OVCAR-8
RPMI-8226 = tested on: RPMI-8226
DU-145 = tested on: DU-145
M14 = tested on: M14

SMILES | GI50 (NCI-H522) | GI50 (HCC 2998) | GI50 (Hs-578T) | GI50 (OVCAR-4) | GI50 (LOX IMVI) | GI50 (K562) | GI50 (SR) | GI50 (UACC-62) | GI50 (HOP-62) | GI50 (U-251) | GI50 (UACC-257) | GI50 (HCT-116) | GI50 (RXF 393) | GI50 (786-0) | GI50 (IGROV-1) | GI50 (OVCAR-8) | GI50 (RPMI-8226) | GI50 (DU-145) | GI50 (M14)
COc1ccc(C(OC(=O)[C@H](O[Si](C)(C)C(C)(C)C)[C@@H](NC(=O)c2ccccc2)c2ccccc2)c2ccc(OC)cc2)cc1 | > 100 µM (inactive) | 68.1 µM (inactive) | > 100 µM (inactive) | > 100 µM (inactive) | > 100 µM (inactive) | 24.8 µM (inactive) | 36.6 µM (inactive) | > 100 µM (inactive) | > 100 µM (inactive) | > 100 µM (inactive) | > 100 µM (inactive) | > 100 µM (inactive) | > 100 µM (inactive) | > 100 µM (inactive) | > 100 µM (inactive) | > 100 µM (inactive) | < 0.01 µM (active) | > 100 µM (inactive) | 
Oc1c2cc(Br)cc1CCc1cc(Br)cc(c1O)CC2 | 14.4 µM (inactive) | 15.3 µM (inactive) | 23.1 µM (inactive) |  | 16.2 µM (inactive) | 20.2 µM (inactive) | < 0.01 µM (active) | 18.6 µM (inactive) | 28.6 µM (inactive) | 23.6 µM (inactive) | 20.2 µM (inactive) | 15.1 µM (inactive) | 20.2 µM (inactive) | 30.2 µM (inactive) | 38.2 µM (inactive) | 28.8 µM (inactive) | 17.2 µM (inactive) | 16 µM (inactive) | 16.3 µM (inactive)
CC1SCCc2nc3ccccc3n21 (configuration not stated) |  | > 100 µM (inactive) | > 100 µM (inactive) | > 100 µM (inactive) | > 100 µM (inactive) | > 100 µM (inactive) | > 100 µM (inactive) | > 100 µM (inactive) | > 100 µM (inactive) | > 100 µM (inactive) | > 100 µM (inactive) | > 100 µM (inactive) | > 100 µM (inactive) | > 100 µM (inactive) | > 100 µM (inactive) | > 100 µM (inactive) | > 100 µM (inactive) | > 100 µM (inactive) | > 100 µM (inactive)
COCCNC1CCC(=O)c2[nH]c3ccccc3c21 (configuration not stated) | > 100 µM (inactive) | > 100 µM (inactive) | 83.9 µM (inactive) | > 100 µM (inactive) | 94.4 µM (inactive) | > 100 µM (inactive) | > 100 µM (inactive) |  | > 100 µM (inactive) | > 100 µM (inactive) | > 100 µM (inactive) | > 100 µM (inactive) | > 100 µM (inactive) | > 100 µM (inactive) | > 100 µM (inactive) | > 100 µM (inactive) | > 100 µM (inactive) | > 100 µM (inactive) | > 100 µM (inactive)
CCCc1cc(O)c2c(C)c3[nH]c4ccc(Cl)cc4c3c(C)c2n1 | 1.87 µM (inactive) | 1.62 µM (inactive) | 9.57 µM (inactive) | 1.86 µM (inactive) | 1.82 µM (inactive) |  | 1.88 µM (inactive) |  | 2.2 µM (inactive) | 1.69 µM (inactive) | 2 µM (inactive) | 1.63 µM (inactive) | 1.51 µM (inactive) | 1.61 µM (inactive) | 2.13 µM (inactive) | 2.55 µM (inactive) |  | 6.3 µM (inactive) | 3.1 µM (inactive)
Cc1c(Cc2ccccc2)n(C(C)OCCN(OC(=O)Oc2ccccc2)C(=O)Oc2ccccc2)c(=O)[nH]c1=O (configuration not stated) | 14.5 µM (inactive) | 17.3 µM (inactive) | 12.9 µM (inactive) | 19.7 µM (inactive) |  | 26.9 µM (inactive) | 28.6 µM (inactive) | 16.3 µM (inactive) | 18.1 µM (inactive) | 19 µM (inactive) | 15 µM (inactive) | 20.5 µM (inactive) | 15.8 µM (inactive) | 18.3 µM (inactive) | 14.9 µM (inactive) | 16.9 µM (inactive) | 24.2 µM (inactive) | 28.5 µM (inactive) | 16.1 µM (inactive)
CC(C)(C)OC(=O)[N+](=N)C(=O)C1CCC(=O)N1C(=O)OCc1ccccc1 (configuration not stated) | > 100 µM (inactive) | > 100 µM (inactive) | > 100 µM (inactive) | > 100 µM (inactive) | > 100 µM (inactive) | > 100 µM (inactive) | > 100 µM (inactive) | > 100 µM (inactive) | > 100 µM (inactive) | > 100 µM (inactive) |  | > 100 µM (inactive) | > 100 µM (inactive) | > 100 µM (inactive) | > 100 µM (inactive) | > 100 µM (inactive) | > 100 µM (inactive) | > 100 µM (inactive) | > 100 µM (inactive)
O=C(O)c1cc2ccccc2c(/N=N/c2ccc(S(=O)(=O)Nc3nccs3)cc2)c1O | > 100 µM (inactive) | > 100 µM (inactive) | > 100 µM (inactive) | > 100 µM (inactive) |  | > 100 µM (inactive) | > 100 µM (inactive) | > 100 µM (inactive) | > 100 µM (inactive) | > 100 µM (inactive) | > 100 µM (inactive) | > 100 µM (inactive) | > 100 µM (inactive) | > 100 µM (inactive) | > 100 µM (inactive) | > 100 µM (inactive) | > 100 µM (inactive) | > 100 µM (inactive) | > 100 µM (inactive)
